Where a name gives a salt, the structure may show the parent alone.
System: IL-4, IL-13, STAT-6, IFNγ, IL-17a, IL-10 mRNA in prostates of CP1 infected mice
Test: qPCR for cytokine transcripts in prostates
Assay type: in vivo, C57BL/6 mice
Settings: late, day 35 post CP1 infection; single drug or combination; CrS 0.5 mg/kg, CeHCl 2.5 mg/kg i.p. daily 10 days
Protocol: The prostates were harvested from mice after euthanizing as described previously (32). Depending on the experimental design, each prostate sample (separated by lobes) were either fixed in 10% formalin or frozen at −80° C. in TRIzol™ reagent (Life Technologies Corporation, Grand Island, NY, USA), or frozen at −80° C. in 1×RIPA (Santa Cruz Biotechnology, Dallas, TX, USA) containing complete-EDTA protease inhibitor cocktail and phosSTOP phosphatase inhibitor (Millipore-Sigma, Burlington, MA, USA), or processed for tissue digestion for flow cytometry. Formalin samples were further processed and embedded in paraffin. The formalin-fixed paraffin-embedded (FFPE) samples were then sectioned (5 μm sections) and mounted on glass slides for staining. […] Following voiding behavior testing on days 14 or 35 [“early treatment” or “late treatment” groups respectively], mice were euthanized and tissues were prepared as described above. Total RNA was isolated using TRIzol™ reagent (Life Technologies Corporation, Grand Island, NY, USA), and cDNA synthesis, starting with 1 μg of total RNA, was performed with random hexamers using High-Capacity cDNA Reverse Transcription Kit (Life Technologies Corporation, Grand Island, NY, USA) per the manufacturer's instructions. Primers for quantitative PCR (qPCR) were created for the RNA of interest using the NIH online primer blast tool. Reverse Transcription-Quantitative Polymerase Chain Reaction (RT-qPCR) reactions were performed using SsoAdvanced™ universal SYBR® green (Bio-Rad, Hercules, CA, USA) and run on the CFX Connect (Bio-Rad, Hercules, CA, USA) platform. A full table of primer sequences is included in Table 1. The data were analyzed by the 2^−ΔΔCT method (38), and normalized to GAPDH as the housekeeping gene. The data are represented as fold change normalized to the average expression of the gene of interest in their respective control group.

| Compound | IL-4 gene expression in prostates of CP1-infected mice (FIG. 12) | IL-13 gene expression in prostates of CP1-infected mice (FIG. 12) |
| --- | --- | --- |
| O=C(O)COCCN1CCN(C(c2ccccc2)c2ccc(Cl)cc2)CC1 (stereo not shown) [CeHCl, cetirizine di-hydrochloride] | reduced the gene expression levels of IL-4 and IL-13 to a modest but non-significant levels | reduced the gene expression levels of IL-4 and IL-13 to a modest but non-significant levels |
| O=C([O-])c1cc(=O)c2c(OCC(O)COc3cccc4oc(C(=O)[O-])cc(=O)c34)cccc2o1.[Na+].[Na+] [CrS, cromolyn sodium] | reduced the gene expression levels of IL-4 and IL-13 to negligible levels | reduced the gene expression levels of IL-4 and IL-13 to negligible levels |

Reference: US11857531B2, “Combination mast cell inhibition for treatment of BPH/LUTS” (Northwestern University, priority 2020, dated 2024)
